Laboratory results taken from paper PMC10175918 (Communications Biology, 2023).
Like-named read-outs stand apart in the source and are kept apart here.

Legend:
Experiment in all cases: TGFα-shedding assay-based GPCR screening with chimeric Gα subunit proteins
Format in all cases: cell-based
Details in all cases: 10µM, Favipiravir 100μM
348 GPCRs [1] = biological target: T1, 348 GPCRs (Homo sapiens, UniProt O75473)
T1 construct: expressed in transfected cells; host or cells: HEK293A
T1 sequence (O75473 22-907): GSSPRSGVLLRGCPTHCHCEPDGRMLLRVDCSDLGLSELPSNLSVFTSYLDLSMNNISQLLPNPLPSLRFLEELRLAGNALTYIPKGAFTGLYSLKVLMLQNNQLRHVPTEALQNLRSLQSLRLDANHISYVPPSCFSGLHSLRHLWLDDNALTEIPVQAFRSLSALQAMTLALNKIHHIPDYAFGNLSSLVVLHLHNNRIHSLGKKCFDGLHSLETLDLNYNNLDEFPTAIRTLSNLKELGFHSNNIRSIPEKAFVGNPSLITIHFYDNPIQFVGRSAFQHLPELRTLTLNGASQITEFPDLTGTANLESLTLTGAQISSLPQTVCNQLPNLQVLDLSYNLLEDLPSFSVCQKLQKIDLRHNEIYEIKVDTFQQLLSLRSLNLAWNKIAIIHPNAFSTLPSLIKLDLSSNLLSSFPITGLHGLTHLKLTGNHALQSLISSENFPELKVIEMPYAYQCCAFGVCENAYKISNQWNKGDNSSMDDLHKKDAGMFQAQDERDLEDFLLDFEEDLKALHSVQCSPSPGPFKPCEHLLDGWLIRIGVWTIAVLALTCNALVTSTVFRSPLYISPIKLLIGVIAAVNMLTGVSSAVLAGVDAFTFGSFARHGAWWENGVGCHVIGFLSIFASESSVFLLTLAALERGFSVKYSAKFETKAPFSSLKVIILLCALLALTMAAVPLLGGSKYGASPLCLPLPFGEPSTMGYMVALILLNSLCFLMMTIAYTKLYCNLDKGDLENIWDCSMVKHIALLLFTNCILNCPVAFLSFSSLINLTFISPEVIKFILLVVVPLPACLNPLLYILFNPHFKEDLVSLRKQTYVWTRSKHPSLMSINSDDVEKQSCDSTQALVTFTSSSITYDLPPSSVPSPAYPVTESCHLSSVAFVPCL

348 GPCRs [2] = biological target: 348 GPCRs (Homo sapiens, UniProt P35346)
348 GPCRs [3] = biological target: T2, 348 GPCRs (Homo sapiens, UniProt P35414)
T2 sequence (P35414 1-380): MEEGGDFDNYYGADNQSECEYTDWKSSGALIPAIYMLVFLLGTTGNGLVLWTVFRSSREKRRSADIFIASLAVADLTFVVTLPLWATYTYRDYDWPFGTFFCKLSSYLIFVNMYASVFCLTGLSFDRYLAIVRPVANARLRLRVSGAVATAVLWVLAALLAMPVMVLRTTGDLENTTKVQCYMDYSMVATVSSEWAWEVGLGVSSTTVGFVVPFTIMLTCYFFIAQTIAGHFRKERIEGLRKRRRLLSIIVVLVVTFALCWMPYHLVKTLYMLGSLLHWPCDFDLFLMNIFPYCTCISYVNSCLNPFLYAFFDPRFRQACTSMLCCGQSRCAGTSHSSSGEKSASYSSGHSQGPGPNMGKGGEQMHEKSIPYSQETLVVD

348 GPCRs [4] = biological target: T3, 348 GPCRs (Homo sapiens, UniProt P47804)
T3 construct: expressed in transfected cells; host or cells: HEK293A
T3 sequence (P47804 1-291): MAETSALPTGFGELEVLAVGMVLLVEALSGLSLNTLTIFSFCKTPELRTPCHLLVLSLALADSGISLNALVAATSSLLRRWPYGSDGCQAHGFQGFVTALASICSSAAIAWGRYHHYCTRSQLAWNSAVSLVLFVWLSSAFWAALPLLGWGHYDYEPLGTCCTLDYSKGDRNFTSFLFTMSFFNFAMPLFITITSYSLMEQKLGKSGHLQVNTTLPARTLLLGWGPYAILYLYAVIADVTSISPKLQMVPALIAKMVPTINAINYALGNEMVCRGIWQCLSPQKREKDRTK

348 GPCRs [5] = biological target: T4, 348 GPCRs (Homo sapiens, UniProt P51686)
T4 construct: expressed in transfected cells; host or cells: HEK293A
T4 sequence (P51686 1-369): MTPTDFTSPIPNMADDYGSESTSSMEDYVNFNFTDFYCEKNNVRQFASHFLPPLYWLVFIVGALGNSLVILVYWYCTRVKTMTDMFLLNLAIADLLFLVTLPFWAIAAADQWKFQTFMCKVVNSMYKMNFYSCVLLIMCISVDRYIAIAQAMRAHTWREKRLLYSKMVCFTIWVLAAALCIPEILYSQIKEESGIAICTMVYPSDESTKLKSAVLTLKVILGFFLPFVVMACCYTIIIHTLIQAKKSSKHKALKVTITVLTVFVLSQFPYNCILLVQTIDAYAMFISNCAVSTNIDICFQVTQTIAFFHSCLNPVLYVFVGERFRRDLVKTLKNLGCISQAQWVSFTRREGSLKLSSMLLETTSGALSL

348 GPCRs [6] = biological target: T5, 348 GPCRs (Homo sapiens, UniProt Q9BXA5)
T5 construct: expressed in transfected cells; host or cells: HEK293A
T5 sequence (Q9BXA5 1-334): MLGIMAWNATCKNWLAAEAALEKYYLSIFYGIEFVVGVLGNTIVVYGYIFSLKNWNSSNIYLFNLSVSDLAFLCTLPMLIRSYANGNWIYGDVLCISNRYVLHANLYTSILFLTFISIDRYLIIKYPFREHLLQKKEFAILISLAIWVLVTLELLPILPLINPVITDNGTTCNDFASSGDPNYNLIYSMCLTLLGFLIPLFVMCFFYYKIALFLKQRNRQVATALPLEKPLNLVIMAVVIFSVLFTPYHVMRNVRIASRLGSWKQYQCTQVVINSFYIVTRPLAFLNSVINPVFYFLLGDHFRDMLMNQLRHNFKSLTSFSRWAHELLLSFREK

[7] = LGR5 (leucine-rich repeat containing G protein-coupled receptor 5), read-out: % GPCR activation compared to TPA
[8] = SSTR5 (somatostatin receptor 5), read-out: % GPCR activation compared to TPA
[9] = APLNR (apelin receptor), read-out: % GPCR activation compared to TPA
[10] = RGR (Retinal G protein coupled receptor), read-out: % GPCR activation compared to TPA
[11] = CCR9 (chemokine (C-C motif) receptor 9), read-out: % GPCR activation compared to TPA
[12] = SUCNR1 (succinate receptor 1), read-out: % GPCR activation compared to TPA
[13] = read-out: % GPCR activation compared to TPA, LGR5 (leucine-rich repeat containing G protein-coupled receptor 5)
[14] = read-out: % GPCR activation compared to TPA, SSTR5 (somatostatin receptor 5)
[15] = read-out: % GPCR activation compared to TPA, APLNR (apelin receptor)
[16] = read-out: % GPCR activation compared to TPA, RGR (Retinal G protein coupled receptor)
[17] = read-out: % GPCR activation compared to TPA, CCR9 (chemokine (C-C motif) receptor 9)
[18] = read-out: % GPCR activation compared to TPA, SUCNR1 (succinate receptor 1)

Sequence of 348 GPCRs (Homo sapiens, UniProt P35346) (P35346 whole entry): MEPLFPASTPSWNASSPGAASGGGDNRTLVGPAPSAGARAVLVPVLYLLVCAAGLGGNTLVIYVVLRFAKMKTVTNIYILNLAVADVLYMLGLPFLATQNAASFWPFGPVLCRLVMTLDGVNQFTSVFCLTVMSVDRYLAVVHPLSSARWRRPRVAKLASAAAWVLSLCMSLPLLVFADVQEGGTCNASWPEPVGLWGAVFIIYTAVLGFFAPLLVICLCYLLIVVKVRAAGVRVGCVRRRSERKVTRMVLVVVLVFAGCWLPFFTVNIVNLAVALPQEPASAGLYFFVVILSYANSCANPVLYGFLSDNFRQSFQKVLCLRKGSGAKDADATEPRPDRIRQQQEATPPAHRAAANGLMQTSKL

| activation at 100 µM (348 GPCRs [1]; [7]) [%] | activation at 10 µM (348 GPCRs [2]; [8]) [%] | activation at 10 µM (348 GPCRs [3]; [9]) [%] | activation at 100 µM (348 GPCRs [4]; [10]) [%] | activation at 10 µM (348 GPCRs [5]; [11]) [%] | activation at 10 µM (348 GPCRs [6]; [12]) [%] | Compound | activation at 100 µM (348 GPCRs [1]; [13]) [%] | activation at 10 µM (348 GPCRs [2]; [14]) [%] | activation at 10 µM (348 GPCRs [3]; [15]) [%] | activation at 100 µM (348 GPCRs [4]; [16]) [%] | activation at 10 µM (348 GPCRs [5]; [17]) [%] | activation at 10 µM (348 GPCRs [6]; [18]) [%] |
| --- | --- | --- | --- | --- | --- | --- | --- | --- | --- | --- | --- | --- |
| -2.87 | -0.162 | -3.07 | -2.11 | 2.4 | -1.18 | N#C[C@@]1(c2ccc3c(N)ncnn23)O[C@H](CO)[C@@H](O)[C@H]1O [GS441524] |  |  |  |  |  |  |
| -2.31 | 2.28 | -2.25 | -1.43 | 2.47 | -2.99 | NC(=O)c1nc(F)cnc1O [favipiravir, 6-fluoro-3-hydroxy-2-pyrazinecarboxamide] |  |  |  |  |  |  |
| -3.75 | -2.28 | -5.92 | -1.3 | -1.34 | -1.93 | CC(C)C(=O)OC[C@H]1O[C@@H](n2ccc(NO)nc2=O)[C@H](O)[C@@H]1O [molnupiravir] |  |  |  |  |  |  |

The remaining lines, values behind:

| Compound | activation at 100 µM (348 GPCRs [1]; [7]) [%] | activation at 10 µM (348 GPCRs [2]; [8]) [%] | activation at 10 µM (348 GPCRs [3]; [9]) [%] | activation at 100 µM (348 GPCRs [4]; [10]) [%] | activation at 10 µM (348 GPCRs [5]; [11]) [%] | activation at 10 µM (348 GPCRs [6]; [12]) [%] | activation at 100 µM (348 GPCRs [1]; [13]) [%] | activation at 10 µM (348 GPCRs [2]; [14]) [%] | activation at 10 µM (348 GPCRs [3]; [15]) [%] | activation at 100 µM (348 GPCRs [4]; [16]) [%] | activation at 10 µM (348 GPCRs [5]; [17]) [%] | activation at 10 µM (348 GPCRs [6]; [18]) [%] |
| --- | --- | --- | --- | --- | --- | --- | --- | --- | --- | --- | --- | --- |
| CCC(CC)COC(=O)[C@H](C)N[P@](=O)(OC[C@H]1O[C@@](C#N)(c2ccc3c(N)ncnn23)[C@H](O)[C@@H]1O)Oc1ccccc1 [remdesivir] |  |  |  |  |  |  | 12.4 | -0.348 | 3.68 | -0.554 | -0.902 | -2.26 |
| CC(C)OC(=O)[C@H](C)N[P@](=O)(OC[C@H]1O[C@@H](n2ccc(=O)[nH]c2=O)[C@](C)(F)[C@@H]1O)Oc1ccccc1 [sofosbuvir] |  |  |  |  |  |  | -3.95 | -0.552 | -5.57 | -3.06 | -0.977 | -0.922 |
